Reference: patent publication US20110098227A1, “Soluble notch-based substrates for gamma secretase and methods and compositions for using same” (priority 2002, published 2011)

Tests used:
solubilized γ-secretase [1] = molecular target: T1, solubilized γ-secretase (Homo sapiens, UniProt P49768); test: In vitro Notch cleavage ELISA (NusA-Notch fusion cleaved by solubilized γ-secretase, Val-1744/anti-FLAG sandwich); format: biochemical
T1 construct: γ-secretase activity from HeLa cells specifically cleaves the Notch protein; endogenous in cells; host or cells: HeLa cells (detergent-solubilized membrane fraction); substrate made in E. coli BL21 (DE3)
Experimental: In vitro Notch Cleavage ELISA. Notch cleavage was also assessed using an ELISA technique. Prior to setting up a reaction, the required number of wells in a 96-well half-area plate (Costar) were coated with 50 μl of Val-1744 antibody diluted 1:200 in 0.1 M NaHCO3, pH 8.2. Plates were incubated overnight at 4° C. The Notch cleavage reaction was set up as follows. NusA-Notch (0.9 μM) was incubated with 70 mg/ml of solubilized γ-secretase in 50 mM Pipes, pH 7.0, 0.25% CHAPSO in a total volume of 25 μl overnight at 37° C. The next day, the plate coated with Val-1744 antibody was washed 3 times with PBS/0.05% Tween-20 and blocked using 4% BSA in PBS/0.05% Tween-20 for 1 hour. […] The color was allowed to develop for 1 hour and 50 µl of 1M H3PO4 was added and the plates read at 450 nm on a SpectraMax Plus plate reader. […]
Inhibition of Notch Cleavage. […] IC50′s were calculated for inhibitors using the 4-parameter logistic model in the GraFit 4.0 program.
It is based on a sandwich ELISA using the highly specific anti-Val 1744 and anti Flag antibodies to capture the N- and C-terminus of the NICD fragment from the Notch fusion protein in the presence of γ-secretase. […] The chromogenic substrate for HRP, TMB reagent (Kirkegaard & Perry) is added and the color once developed is read at 450 nm on a SpectraMax Plus plate reader.

solubilized γ-secretase [2] = molecular target: T1, solubilized γ-secretase; test: Cleavage of Notch as determined by Western blot analysis; format: biochemical
Experimental: Cleavage of Notch as Determined by Western Blot Analysis. NusA-Notch fusion (1.7 μM) was incubated with 70 mg/ml solubilized γ-secretase in 50 mM Pipes, pH 7.0, 0.25% CHAPSO in a total volume of 50 μl overnight at 37° C. DAPT (PHA-568638) was added at varying concentrations. The reactions were stopped with the addition of 12.5 μl of 5× Laemmli buffer (Laemmli 1970) and 30 μl of the mixture was electrophoresed on a 15% SDS-PAGE. Proteins were transferred to nitrocellulose using a semi-dry blot apparatus (Millipore) and blocked for 2 hours using 4% BSA in PBS/0.5% Tween-20. […] The membrane was washed three times with PBS/0.5% Tween-20 followed by incubation with anti-rabbit IgG-HRP (1:5000 dil in 4% BSA in PBS/0.5% Tween-20). The membrane was again washed three times and developed using ECL reagents (Amersham, Piscataway, N.J.).

Compound	IC50 (solubilized γ-secretase [1]; NusA-Notch substrate, overnight 37° C., FIG. 9, read-out: IC50, inhibition of γ-secretase-mediated Notch cleavage) [nM]	inhibition of specific cleavage in Notch protein (1743/1744) (solubilized γ-secretase [2]; Western blot probed with Val-1744 antibody, varying concentrations, FIG. 5 lanes 4-8)	inhibition of cleavage products of Notch fusion protein (solubilized γ-secretase [2]; Western blot using the C-terminal Flag antibody, three immunoreactive bands)	Km (solubilized γ-secretase [1]; Michaelis-Menten fit, 0.11 to 3.6 μM substrate, FIG. 8A, read-out: apparent Km for hydrolysis of Notch fusion protein substrate by solubilized γ-secretase activity) [µM]
C[C@H](NC(=O)Cc1cc(F)cc(F)c1)C(=O)N[C@H](C(=O)OC(C)(C)C)c1ccccc1 [DAPT]	2.4	inhibited in a dose-dependent manner	only one cleavage product was inhibitable	
Notch fusion protein substrate: soluble fusion of mouse Notch-1 amino acids 1703-1860 to C-terminus of NusA with C-terminal Flag and 8His tags (SEQ ID NO:2)				~0.7
